Tests used:
malaria parasites = details: background, cited from earlier work
P. falciparum (RB-1) = assay: Direct antimalarial activity, flow cytometry, strain RB-1; type: cell-based, Plasmodium falciparum; details: for inhibition at 0.5 µg/mL: Plasmodium falciparum, 0.5 μg/ml, 48 h, FIG. 2, read-out: inhibition of growth of P. falciparum; for activity against the malaria microorganism Plasmodium falciparum: summary statement
Protocol: To investigate the direct antimalarial activity of the riminophenazines B669, B4100, B4103, B4112, B4121, B4158 and B4169 against a laboratory strain of P. falciparum the following experiment was done:
A laboratory strain of P. falciparum (RB-1; obtained from Dr B L Sharp, National Malaria Research Programme, MRC, Durban) was maintained.
For these experiments malaria cultures of haematocrit 5.0% and initial parasitemia 2.0% were used. The malaria infected erythrocytes (ring stage) were incubated in microtitre plates with serial dilutions of B669, B4100, B4103, B4112, B4121, B4158 and B4169 (0.125-2 μg/ml) for 48 hours and processed for analysis on the flow cytometer as described in Example 3.

P. falciparum (FAC 8) = assay: Flow cytometry parasitaemia, chloroquine resistant strain FAC 8, chloroquine with/without B4112; type: cell-based, Plasmodium falciparum
Protocol: To test the activity of B4112 to reverse chloroquine resistance in Plasmodium falciparum, the following experiment was done:
A chloroquine resistant strain of P. falciparum (FAC 8) was obtained from Dr P Smith, University of Cape Town (originally from Dr A F Cowman, Royal Melbourne Hospital, Victoria, Australia).
Malaria infected erythrocytes (ring stage) were diluted with human O-positive red blood cells together with RPMI containing 44 mg/l hypoxanthine and 10% human type A serum to a parasitaemia of 2% and a haematocrit of 5%. This suspension was incubated in a gassed desiccator (5% O2, 5% CO2 and 90% N2) with serial dilutions of chloroquine ranging from 61-500 nM in 96-well microtitre culture plates for 48 hours in the presence or absence of a fixed concentration of B4112 (100 ng/ml). Relevant solvent controls were included.
At the end of the incubation period, 100 μl of the medium was removed from each well and replaced with a fixation solution containing 10 mM TRIS, 10 mM Na-Azide and 150 mM Na Cl. The plates were stored overnight at 4° C. and then 25 μl aliquots from each well were stained in test tubes with 0.5 ml thiazole orange at a concentration of 0.25 μg/ml in phosphate-buffered saline (PBS). After an incubation period of 1 hour at room temperature (in the dark), the tubes were placed on ice and the level of parasitaemia determined by flow cytometry using a Coulter Epics Profile II (Coulter Electronics Ltd, Hialeah, PLA, USA).

[1] = tested on: Plasmodium falciparum (Fab-9); assay: Microscopic parasitaemia, chloroquine sensitive strain Fab-9 (reversal of chloroquine resistance); type: cell-based; details: 24 h
Protocol: (§1) The activity of riminophenazines to reverse chloroquine resistance in Plasmodium falciparum was tested in the following manner:
(§2) A preliminary series of experiments were carried out using two laboratory strains of P. falciparum (RB-1 and Fab-9). These strains were obtained from the Medical Research Council, Durban, where they were characterised as being either mildly resistant or sensitive to chloroquine. The isolates were maintained in suspension culture in known manner (as described by Freese J A, Markus M B and Golenser J, 1991; Bulletin of the World Health Organization 69: 707-712).
(§3) Infected erythrocytes were diluted with human O-positive red blood cells to a parasitaemia of 0.2-0.9% and suspended to 3% in RPMI containing 44 mg/l hypoxanthine and 10% human type O serum. Aliquots (100 μl) of the suspension were dispensed into the wells of 96-well microtitre plates. To these suspensions 100 μl of the medium were added containing either chloroquine or B669 alone or in combination. The final drug concentrations were 31, 62, 125, 250 500 and 1000 nM for chloroquine and 0.125, 0.25, 0.5 and 1.0 μg/ml for B669. Relevant solvent controls were included. The plates were incubated for 24 hours at 38° C. in a desiccator gassed with 5% O2, 5% CO2 and 90% N2. Thin blood smears were prepared from each well, stained with Giemsa stain and the percentage of red blood cells infected by at least one parasite determined microscopically.

[2] = tested on: Plasmodium falciparum (RB-9); assay: 3H-hypoxanthine uptake, chloroquine resistant strain (RB-9 [sic]); type: cell-based; details: Plasmodium falciparum, read-out: PERCENTAGE INHIBITION (3H-hypoxanthine uptake)
Protocol: (§4) The following experiment was done to confirm previous results which were obtained microscopically and details of which are set out in Example 1.
(§5) For this experiment the same two strains of P. falciparum, as used in Example 1 (RB-1 and Fab-9) were again used. Infected erythrocytes were diluted with human O-positive red blood cells to a parasitaemia of 0.2-0.9% and suspended to 3% in RPMI containing 44 mg/l hypxanthine and 10% human type serum. Aliquots (100 μl) of the suspension were dispensed into the wells of 96-well microtitre plates. To these suspensions 100 μl of the medium were added containing either chloroquine or B669 alone or a combination of chloroquine and B669. Relevant solvent controls were included. Negative control wells were also included containing uninfected red blood cells. The plates were incubated at 38° C. in a desiccator gassed with 5% O2, 5% CO2 and 90% N2. After 24 hours 100 μl culture medium of each well was replaced with […] of hypoxathine--free medium containing 10% human serum and 0,5μ Ci^3 H-hypoxanthine and incubated for a further 18 hours. The contents of the wells were then harvested on to glass fibre filters. The filters were washed with distilled water, dried, haemoglobin dissolved in a sodium bicarbonate solution and placed in scintillation vials containing 4 ml scintillation fluid and counted for 5 min in a liquid scintillation counter.
(§6) The percentage inhibition was calculated as follows: [formula] where CPM was the mean of two values of counts per minute for each treatment.

[3] = tested on: Plasmodium falciparum (RB-9); assay: as above; type: cell-based; details: read-out: PERCENTAGE INHIBITION (3H-hypoxanthine uptake)
[4] = tested on: Plasmodium falciparum (Fab-9); assay: 3H-hypoxanthine uptake, chloroquine sensitive strain Fab-9; type: cell-based; details: Plasmodium falciparum, read-out: PERCENTAGE INHIBITION (3H-hypoxanthine uptake)
Protocol: as §4, §5, §6

[5] = tested on: Plasmodium falciparum (RB-1); assay: Microscopic parasitaemia, chloroquine resistant strain RB-1 (reversal of chloroquine resistance); type: cell-based; details: 24 h
Protocol: as §1, §2, §3

COc1ccc(CCN(C)CCCC(C#N)(c2ccc(OC)c(OC)c2)C(C)C)cc1OC (centres unmarked) [verapamil]
reversal of Pg H1-mediated chloroquine resistance (malaria parasites): can be reversed
side effects of the dose required to reverse resistance (malaria parasites; in vivo): severe side effects in vivo

CC(C)c1ccc(Nc2cc3nc4ccccc4n(-c4ccc(C(C)C)cc4)c-3cc2=NC2CC(C)(C)NC(C)(C)C2)cc1 [Compound B4158, N,5-bis(4-isopropylphenyl)-3,5-dihydro-3-[(2',2',6',6'-tetramethyl-4-piperidyl)-imino]-2-phenazinarnine]
inhibition at 0.5 µg/mL (P. falciparum (RB-1)): > 50%
activity against the malaria microorganism Plasmodium falciparum (P. falciparum (RB-1)): good activity

CC1(C)CC(N=c2cc3n(-c4cccc(Cl)c4)c4ccccc4nc-3cc2Nc2cccc(Cl)c2)CC(C)(C)N1 [Compound B4112, N,5-bis(3-chlorophenyl)-3,5-dihydro-3-[(2',2',6',6'-tetramethyl-4-piperidyl)-imino]-2-phenazinamine]
sensitivity of P. falciparum to chloroquine (inhibition) (P. falciparum (FAC 8); B4112 100 ng/ml + chloroquine 125 nM, FIG. 1): 100%
inhibition of parasite growth (P. falciparum (FAC 8); B4112 per se 100 ng/ml, 48 h): 27%
interaction of B4112 and chloroquine (P. falciparum (FAC 8); FAC 8): clearly interacted synergistically
inhibition at 0.5 µg/mL (P. falciparum (RB-1)): > 50%
activity against the malaria microorganism Plasmodium falciparum (P. falciparum (RB-1)): good activity

CC1(C)CC(N=c2cc3n(-c4cc(Cl)cc(Cl)c4)c4ccccc4nc-3cc2Nc2cc(Cl)cc(Cl)c2)CC(C)(C)N1 [Compound B4121, N,5-bis(3,5-dichlorophenyl)-3,5-dihydro-3-[(2',2',6',6'-tetramethyl-4-piperidyl)-imino]-2-phenazinamine]
activity against the malaria microorganism Plasmodium falciparum (P. falciparum (RB-1)): good activity

CCN(CC)CCCC(C)Nc1ccnc2cc(Cl)ccc12 (centres unmarked) [chloroquine, reference compound]
minimal effective concentration (P. falciparum (FAC 8); Plasmodium falciparum, 48 h, read-out: concentration at which chloroquine per se inhibited the growth of the parasite): ≥ 0.25 µM
inhibition at 0.125 µM (P. falciparum (FAC 8); Plasmodium falciparum, read-out: sensitivity of P. falciparum to chloroquine (inhibition)): 33%
Percentage red blood cells infected with P. falciparum (Fab-9) ([1]; chloroquine 31 nM alone): 4.9%
Percentage red blood cells infected with P. falciparum (Fab-9) ([1]; chloroquine 62 nM alone): 3.9%
Percentage red blood cells infected with P. falciparum (Fab-9) ([1]; chloroquine 125 nM alone, *parasites morphologically abnormal): 2.4%
Percentage red blood cells infected with P. falciparum (Fab-9) ([1]; chloroquine 250 nM alone, *parasites morphologically abnormal): 3.1%
Percentage red blood cells infected with P. falciparum (Fab-9) ([1]; chloroquine 500 nM alone, *parasites morphologically abnormal): 0.1%
Percentage red blood cells infected with P. falciparum (Fab-9) ([1]; chloroquine 1000 nM alone): 0%
inhibition at 0.031 µM [2]: 0%
inhibition at 0.062 µM [2]: 0%
inhibition at 0.125 µM [2]: 8%
inhibition at 0.25 µM [2]: 33%
inhibition at 1 µM [2]: 100%
inhibition at 0.5 µM [3]: 100%
inhibition at 0.031 µM [4]: 52.5%
inhibition at 0.062 µM [4]: 23.5%
inhibition at 0.125 µM [4]: 48.7%
inhibition at 0.25 µM [4]: 66.9%
inhibition at 0.5 µM [4]: 100%
inhibition at 1 µM [4]: 100%
Percentage red blood cells infected with P. falciparum (RB-1) ([5]; chloroquine 31 nM alone): 3.5%
Percentage red blood cells infected with P. falciparum (RB-1) ([5]; chloroquine 62 nM alone): 3.3%
Percentage red blood cells infected with P. falciparum (RB-1) ([5]; chloroquine 125 nM alone): 3.3%
Percentage red blood cells infected with P. falciparum (RB-1) ([5]; chloroquine 250 nM alone): 3.1%
Percentage red blood cells infected with P. falciparum (RB-1) ([5]; chloroquine 500 nM alone): 3.0%
Percentage red blood cells infected with P. falciparum (RB-1) ([5]; chloroquine 1000 nM alone): 0.4%

CC1(C)CC(N=c2cc3n(-c4ccc(Cl)c(Cl)c4)c4ccccc4nc-3cc2Nc2ccc(Cl)c(Cl)c2)CC(C)(C)N1 [Compound B4100, N,5-bis(3,4-dichlorophenyl)-3,5-dihydro-3-[(2',2',6',6'-tetramethyl-4-piperidyl)-imino]-2-phenazinamine]
activity against the malaria microorganism Plasmodium falciparum (P. falciparum (RB-1)): good activity

CC1(C)CC(N=c2cc3n(-c4ccc(C(F)(F)F)cc4)c4ccccc4nc-3cc2Nc2ccc(C(F)(F)F)cc2)CC(C)(C)N1 [Compound B4103, N,5-bis(4-trifluoromethylphenyl)-3,5-dihydro-3[(2',2',6',6'-tetramethyl-4-piperidyl)imino]-2-phenazinamine]
inhibition at 0.5 µg/mL (P. falciparum (RB-1)): > 50%

Source: patent US5763442A, “Anti-parasitic activity” (Universiteit Van Pretoria, priority 1995, dated 1998)
